Drawing on US10961202B2, “Bis-benzimidazole compounds and methods of using the same” (THE SCRIPPS RESEARCH INSTITUTE, priority 2017, dated 2021), this text covers IC50 for 17 compounds.

Each structure is given as a SMILES string. pIC50: −log10 of the molar value.

The test system of the first assay is r(CUG)12-MBNL1 complex. As to the kind of experiment: Inhibition of the r(CUG)12-MBNL1 complex measured by TR-FRET. Format: biochemical. As to conditions: Table L; 80 nM RNA, 60 nM MBNL1-His6.
What is called pIC50 is the negative decadic logarithm of the IC50, by convention in mol/L. In the case of `O=C(O)c1ccc2nc(-c3ccc(-c4nc5ccc(C(=O)NCCN6CCCCC6)cc5[nH]4)cc3)[nH]c2c1` [Compound 43, 2-(4-(6-((2-(piperidin-1-yl)ethyl)carbamoyl)-1H-benzo[d]imidazol-2-yl)phenyl)-1H-benzo[d]imidazole-6-carboxylic Acid], the pIC50 is < 3.70.

In the case of `Cn1c(-c2ccc(N)cc2)nc2cc(-c3ccc4nc(-c5ccc(N)cc5)n(C)c4c3)ccc21` [Compound 121, 1,3′-dimethyl-2,2′-bis(4-aminophenyl)-1H,3′H-5,5′-bibenzimidazole], the pIC50 was < 3.70.

With `CN(C)CCNC(=O)c1ccc2nc(-c3ccc(-c4nc5ccc(C(=O)NCCN(C)C)cc5[nH]4)c(Br)c3)[nH]c2c1` [Compound 78], the pIC50 is < 3.70.

For the compound `NC(=O)c1ccc2nc(-c3ccc(-c4nc5ccc(C(N)=O)cc5[nH]4)cc3)[nH]c2c1` [Compound 12, 2,2′-(1,4-phenylene)bis(1H-benzo[d]imidazole-6-carboxamide)], the pIC50 was < 3.70.

`NCCNC(=O)c1ccc2nc(-c3ccc(-c4nc5ccc(C(=O)NCCN)cc5[nH]4)cc3)[nH]c2c1` [Compound 30, 2,2′-(1,4-phenylene)bis(N-(2-aminoethyl)-1H-benzo[d]imidazole-6-carboxamide)] showed a pIC50 of 4.74.

Staying with this assay, now noted: Table M; 80 nM RNA, 60 nM MBNL1-His6.
With `CCCCCOc1ccc(-c2nc3cc(-c4ccc5[nH]c(-c6ccc(C(=O)NCCN(C)C)cc6)nc5c4)ccc3[nH]2)cc1` [Compound 392], the pIC50 was 4.74.

As to `OCCCCOc1ccc2nc(-c3ccc(-c4nc5ccc(OCCCCO)cc5[nH]4)cc3)[nH]c2c1` [Compound 225], the pIC50 is 3.81.

For `CN(C)CCCCOc1ccc2nc(-c3ccc(-c4nc5ccc(O)cc5[nH]4)cc3)[nH]c2c1` [Compound 200, 2-(4-(6-(4-(dimethylamino)butoxy)-1H-benzo[d]imidazol-2-yl)phenyl)-1H-benzo[d]imidazol-6-ol], the pIC50 was 4.49.

Consider `CN1C(C)(C)CC(Oc2ccc(-c3nc4cc(-c5ccc6[nH]c(-c7ccc(OC8CC(C)(C)N(C)C(C)(C)C8)cc7)nc6c5)ccc4[nH]3)cc2)CC1(C)C` [Compound 366], for which the pIC50 is < 3.70.

In the case of `CN(C)CC(CN(C)C)Oc1ccc(-c2nc3cc(-c4ccc5[nH]c(-c6ccc(OC(CN(C)C)CN(C)C)cc6)nc5c4)ccc3[nH]2)cc1` [Compound 369], the negative-log IC50 (pIC50) was < 3.70.

`COCCOCCOc1cc(-c2nc3ccc(OCCCN(C)C)cc3[nH]2)ccc1-c1nc2ccc(OCCCN(C)C)cc2[nH]1` [Compound 260] had a negative-log IC50 (pIC50) of 4.43.

Take `NCc1cccc(Oc2ccc3nc(-c4ccc(-c5nc6ccc(Oc7cccc(CN)c7)cc6[nH]5)cc4)[nH]c3c2)c1` [Compound 234, (((2,2′-(1,4-phenylene)bis(1H-benzo[d]imidazole-6,2-diyl))bis(oxy))bis(3,1-phenylene))dimethanamine]: the pIC50 was 4.40.

As for `CN(C)CCNC(=O)c1ccc(-c2nc3cc(-c4ccc5[nH]c(-c6ccc(C(=O)NCCCCNC(=O)c7ccc(-c8nc9cc(-c%10ccc%11[nH]c(-c%12ccc(C(=O)NCCN(C)C)cc%12)nc%11c%10)ccc9[nH]8)cc7)cc6)nc5c4)ccc3[nH]2)cc1` [Compound 420], the negative logarithm of the IC50 (pIC50) is 5.20.

`CN(C)CCNC(=O)c1ccc(-c2nc3ccc(-c4ccc5nc(-c6ccc(C(=O)N[C@@H]7CCN(C(=O)c8ccc(-c9nc%10ccc(-c%11ccc%12nc(-c%13ccc(C(=O)NCCN(C)C)cc%13)[nH]c%12c%11)cc%10[nH]9)cc8)C7)cc6)[nH]c5c4)cc3[nH]2)cc1` [Compound 454] had a pIC50 of 5.47.

`CN1CCC(Oc2ccc(-c3nc4cc(-c5ccc6[nH]c(-c7ccc(OC8CCN(C)CC8)cc7)nc6c5)ccc4[nH]3)cc2)CC1` [Compound 335] had a pIC50 of 4.65.

Consider `CN(C)CCOCCOc1ccc(-c2nc3cc(-c4ccc5[nH]c(-c6ccc(OCCOCCN(C)C)cc6)nc5c4)ccc3[nH]2)cc1` [Compound 367], for which the pIC50 is 4.67.

Take `CN1CCCCC1COc1ccc(-c2nc3cc(-c4ccc5[nH]c(-c6ccc(OCC7CCCCN7C)cc6)nc5c4)ccc3[nH]2)cc1` (centres unmarked) [Compound 359]: the pIC50 is 4.18.
